Source: article PMC5686756, “IKKγ-Mimetic Peptides Block the Resistance to Apoptosis Associated with Kaposi's Sarcoma-Associated Herpesvirus Infection” (Journal of Virology, 2017)
pIC50, pKi: −log10 of the molar value. Positions of bridges follow the written chain, without caps; N, C: chain ends. Non-standard residues stand in square brackets, D forms with d. Residues, ends and D or L forms follow the SMILES beside them. S5 = C=CCCC[C@](C)(N)C(=O)O

Experiments:
DG75 cells = experiment: Cell viability assay (trypan blue), DG75 cells; format: cell-based, human
Procedure: (§1) Given their profound impact on NF-κB activation, we next assessed whether IKKγ-mimetic peptides could sensitize BC3 cells to TNF-α and ETO and thus stimulate cell death. To investigate this in cellulo, BC3 cells were transduced with the GST-IKKγ peptide vector prior to treatment with TNF-α or ETO, and after 24 h, their viabilities were assessed. As a control, similar trials were conducted but with GST-IKKγDM, which harbors the same peptide containing the F238R D242R IKKγ double mutations previously shown to impair ks-vFLIP binding and consequently NF-κB activation ([27]). […] We also determined whether spIKKγ could have a similar effect. Owing to the presence of the aliphatic linker and overall positive charge (+0.1), we reasoned that spIKKγ was likely to be cell permeable based on studies involving a diverse range of unrelated stapled peptides ([28][–][32]). […] The effects of SPIKKγ were also investigated on BCP-1 cells, an additional PEL cell line.
BC3, BCP-1, and DG75 cells were purchased for this study from the American Type Culture Collection (ATCC). They were verified as human B cell lines by surface staining for human Ig.
(§2) The transfected cells, the human B cell lines BC3, BCP-1, and DG75 (a […] negative for KSHV and Epstein-Barr virus [EBV]) were treated with human TNF-α (PeproTech or Alomone Labs), ETO (Sigma), spIKKγ (encompassing IKKγ residues 230 to 248; see Fig. 3 for structure), or combinations of spIKKγ with either TNF-α or ETO. Cell survival was determined after 24 and 48 h by trypan blue staining and counting with a hemocytometer. Cell viability is expressed as a percentage of the number of viable cells per culture at the start of each experiment. […] Significance difference was calculated by two-way analysis of variance (ANOVA) with Fisher's least significant difference (LSD) posttest.

BC3 cells = format: cell-based, human; conditions: for BC3 cell death, agent individually: TNF-α or ETO alone
Procedure: as §1
Lentiviral vectors expressing GST or GST fusion peptides together with green fluorescent protein (GFP), CherryFP, WT vFLIP, or vFLIPA57L (a mutant which fails to bind IKKγ) were produced as previously described ([19]). […] In each case, lentiviral vector doses were used to ensure that over 95% of cells were positive for the relevant fluorescent protein. […]
as §2

Jurkat cells = experiment: Cell viability assay (trypan blue), Jurkat cells; format: cell-based, human; conditions: for rescue of Jurkat cell survival by WT ks-vFLIP: FADD/ATG3 siRNA Jurkat cells overexpressing WT ks-vFLIP; for protection by ks-vFLIP, IKKγ-null cells: Jurkat cells null for IKKγ; for protection by A57L ks-vFLIP mutant against induced apoptosis: Jurkat cells with A57L ks-vFLIP; for Jurkat cell survival, FADD or ATG3 silenced or IKKγ null: no ks-vFLIP rescue, FADD siRNA, ATG3 siRNA
Description: Although it has been established that dysregulated activation of the canonical NF-κB pathway by ks-vFLIP renders mouse embryonic fibroblasts resistant to apoptosis induced by TNF-α ([12]), we sought to ascertain whether ks-vFLIP expression also prevents cell death induced by ETO. Unlike TNF-α, which instigates death receptor signaling, ETO, a topoisomerase II inhibitor, initiates cell death through the generation of DNA double-strand breaks ([20]). […] We next investigated the potential involvement of death-inducing signaling complex (DISC) formation and autophagy since ks-vFLIP has been cited (somewhat controversially) to interact with procaspase 8, an […] whose activation requires the adaptor protein FADD ([21]), and to physically associate with the ubiquitin-like conjugating enzyme ATG3, which is essential for the formation of autophagosomes ([11]). Viability assays were therefore conducted using Jurkat cells in which FADD and ATG3 were silenced (using small interfering RNA [siRNA]) together with those null for IKKγ in the presence of both ETO and TNF-α (Fig. 1C and D).
Lentiviral vectors expressing GST or GST fusion peptides together with green fluorescent protein (GFP), CherryFP, WT vFLIP, or vFLIPA57L (a mutant which fails to bind IKKγ) were produced as previously described ([19]). […] In each case, lentiviral vector doses were used to ensure that over 95% of cells were positive for the relevant fluorescent protein. The anti-FADD antibody used for immunoblots was purchased from BD Biosciences, and those for anti-ATG3 and anti-glyceraldehyde-3-phosphate dehydrogenase (anti-GAPDH) were from Cell Signaling Technology. Jurkat cells and their IKKγ-null derivatives were obtained from Alain Israel, Institute Pasteur, and verified as human T cells by surface CD3 staining.
as §2

GB1–ks-vFLIP = molecular target: T1, GB1–ks-vFLIP (Human herpesvirus 8 type P, UniProt F5HEZ4); experiment: biochemical; format: binding, Kaposi's sarcoma-associated herpesvirus
T1 construct: ks-vFLIP (residues 1 to 188) was PCR cloned into the EcoRI and XhoI sites of GB1-pBR22b; 6His (C); made in house; host or cells: E. coli BL21(DE3)
Procedure: We next sought to assess the affinity of spIKKγ for vFLIP using isothermal calorimetry (ITC).
Isothermal calorimetry (ITC) experiments were performed using a Microcal VP-ITC micocalorimeter (MicroCal). For all binding reactions, syringe concentrations varied between ∼85 and 100 μM for IKKγ(150–272) and cell concentrations between ∼8 and 10 μM for GB1-vFLIP. Titrations consisted of an initial 2-μl injection, followed by 20 10-μl injections with stirring at 300 rpm. In competition assays, GB1–ks-vFLIP was first incubated with 20 μM spIKKγ and DMSO to 4% prior to loading into the cell and titration with IKKγ(150–272). All ITC binding experiments were performed in deionized water at 25°C owing to the buffer constraints of spIKKγ, GB1–ks-vFLIP, and IKKγ(150–272), where GB1–ks-vFLIP and IKKγ(150–272) were buffer matched by overnight dialysis, followed by the addition of 4% DMSO to each. […] Following collection, all data were analyzed using ORIGIN 70 software and fitted to a one-site binding model with each experiment performed at least in triplicate.

Compound	DG75 viability at 48 h, ETO (or ETO plus spIKKγ) (DG75 cells; Fig. 5E, 48 h)	DG75 sensitivity to ETO (DG75 cells; after 48 h)	BC3 cell death, agent individually (BC3 cells)	rescue by WT ks-vFLIP, ATG3 siRNA (Jurkat cells; ATG3 siRNA Jurkat cells, ETO)	Jurkat cell survival, null for ks-vFLIP (Jurkat cells; ETO 50 μM, cells null for ks-vFLIP)	Jurkat cell survival with ks-vFLIP (Jurkat cells; ETO 50 μM, ks-vFLIP-expressing cells)	rescue of Jurkat cell survival by WT ks-vFLIP (Jurkat cells)	protection by ks-vFLIP, IKKγ-null cells (Jurkat cells)	protection by A57L ks-vFLIP mutant against induced apoptosis (Jurkat cells)	Jurkat cell survival, FADD or ATG3 silenced or IKKγ null (Jurkat cells)	solubility in aqueous solutions	pIC50 (BC3 cells; spIKKγ alone, after 24 h, trypan blue, triplicate independent experiments, read-out: 50% inhibitory concentration (IC50), BC3 viability)	pKi (GB1–ks-vFLIP)	DG75 viability, control experiment (DG75 cells; Fig. 5E, spIKKγ or TNF-α alone or in combination, 24 and 48 h)	Jurkat cell survival, trend versus ETO (Jurkat cells; TNF-α, various concentrations, with and without ks-vFLIP)
COc1cc([C@@H]2c3cc4c(cc3[C@@H](O[C@@H]3O[C@@H]5CO[C@@H](C)O[C@H]5[C@H](O)[C@H]3O)[C@H]3COC(=O)[C@H]23)OCO4)cc(OC)c1O [ETO, etoposide]	significant reduction in viability	Considerable sensitivity	negligible effects individually	to a lesser degree	severely compromised	only moderately reduced	could to a large extent be rescued	completely refractory to the protective effects of ks-vFLIP	could not protect cells against apoptosis	severely compromised in all three scenarios	–	–	–	–	–
CC[C@H](C)[C@H](NC(=O)[C@H](Cc1c[nH]cn1)NC(=O)[C@H](CC(N)=O)NC(=O)[C@H](CC(=O)O)NC(=O)[C@H](Cc1ccc(O)cc1)NC(=O)[C@]1(C)CCCC=CCCC[C@](C)(NC(=O)[C@H](Cc2c[nH]cn2)NC(=O)[C@H](Cc2ccc(O)cc2)NC(=O)[C@H](C)NC(=O)[C@@H](NC(=O)[C@H](CCC(N)=O)NC(=O)[C@H](CC(C)C)NC(C)=O)C(C)C)C(=O)N[C@@H](CC(C)C)C(=O)N[C@@H](Cc2ccccc2)C(=O)N[C@@H](CCC(N)=O)C(=O)N1)C(=O)N[C@@H](CCCCN)C(=O)N[C@@H](CO)C(=O)N[C@@H](CO)C(=O)N[C@@H](CS)C(N)=O [spIKKγ] (Ac-LQVAYH[S5]LFQ[S5]YDNHIKSSC-NH2; staple 7-11)	–	–	–	–	–	–	–	–	–	–	poor solubility	~4.12	6.59	–	–
TNF-α	–	–	negligible effects individually	–	–	–	could to a large extent be rescued	completely refractory to the protective effects of ks-vFLIP	could not protect cells against apoptosis	severely compromised in all three scenarios	–	–	–	failed to have a negative impact	closely mirror the trend
